The values that follow are results of earlier work, collected in US20110015154A1, “SUPPORTING ACETYLCHOLINE FUNCTION” (priority 2009, published 2011).

The conditions of series [1]: supplementation.
Series [2] has as its system nuclear factor-kappa B (NFκB). Conditions: after 14 days of administration.
The subject of a further series is cells. Conditions: against hydrogen peroxide, beta-amyloid protein, glutamate, ischemia, staurosporine-induced cytotoxicity, and apoptosis.
The next series relates to M1 receptors. Conditions: adult rats.
For a further series, the system named is M2 receptors. Conditions: adult rats.
For series [3] the following is noted: in vivo.

For the compound `CC(=O)O[C@H](CC(=O)[O-])C[N+](C)(C)C` [acetyl-L-carnitine], the “pain in patients with diabetic peripheral neuropathy” value in series [1] was “reduce pain”.

For the compound `C/C=C1\[C@H]2C=C(C)C[C@]1(N)c1ccc(=O)[nH]c1C2` [huperzine A, Huperzine A], in series [2], the “activation of glial cells in an ischemic event” value was “reduced”, the “nuclear translocation of transcription factor NFκB” value is recorded as “inhibited” and the “overexpression of pro-inflammatory mediators in an immune challenge” value was “decreased”. Further, the cell protection entry in the series with cells is “protects cells”.

As to `C[N+](C)(C)CCOP(=O)([O-])OC[C@H](O)CO` [α-GPC, Alpha-glycerylphosphorylcholine], the “effect on M1 receptors” value in the series on M1 receptors is reported as “countered the loss of M1 receptors”. Also, in the series on M2 receptors, the “effect on M2 receptors” value is listed as “no effect”. In addition, in series [3], the blood-brain barrier passage entry is “can cross the blood-brain barrier”; the metabolism entry was “rapidly metabolized into choline and glycerophosphate”.
